Assay results from patent publication US20060148767A1, “Use of acyl salicylates as heat shock inducers” (priority 2001, published 2006).

What was measured:
heat shock response = conditions: cited from earlier work
human Hsp70 promoter = assay: Heat shock induction in L 929 fibroblast cells, luciferase under human Hsp70 promoter; format: cell-based, mouse; conditions: for increase of heat shock response with respect to the control: 37° C.; for increase of heat shock response compared with the control: 40° C.
Procedure: Acetyl, propanoyl, n-butanoyl, n-octanoyl and n-decanoyl salicylates were tested for their ability to induce heat shock response in an in vitro system using L 929 fibroblast cells, in which the enzyme luciferase was cloned under the transcriptional control of the human Hsp70 promoter (Proc. Natl. Acad. Sci USA, 92, 7207-7211, 1995). The effects of the mentioned compounds on heat shock induction at different temperatures have been compared using Bimoclomol as reference compound (Table 1). As reported in Table 1, propanoyl salicylate and Bimoclomol at 37° C. increase the heat shock response by 33% with respect to the control, while n-butanoyl, n-octanoyl and n-decanoyl salicylates increase it up to 67%. […] (Nature Medicine, 3, 1150-1154, 1997).

Hsp70 = assay: Heat shock response in NHEK cells, Hsp70 ELISA; format: cell-based; conditions: NHEK keratinocytes, 18 hours at 37° C., no heat shock
Procedure: Acetyl, propanoyl, n-butanoyl, n-octanoyl and n-decanoyl salicylates, synthesized according to Example 1 or 2, were tested for their ability to induce heat shock response in an in vitro system using cells NHEK.
NHEK cells, grown at 37° C. to 75% confluence, were treated with different doses of propanoyl, n-butanoyl, n-octanoyl and n-decanoyl salicylates at a concentration range from 0 to 50 μM, using 50 mM sorbitol and heat shock at 42° C. as positive controls. After incubation for 18 hours at 37° C., Hsp70 levels were quantitatively determined on keratinocytes using the ELISA kit by StressGen.

[1] = Stability as crystalline compound and in solution; format: physicochemical
Procedure: The mixture was stirred at room temperature for 30 minutes and kept at 70° C. for 2 hours. The reaction mixture was poured into ice water and the precipitated product was filtered in vacuo, dried and recrystallized tree times from toluene or ethanol as solvent. […] The ^1H-NMR spectrum of the synthesized propanoyl salicylate is consistent with the proposed structure.

UV-B induced erythema = assay: Prevention and repair of UV-B induced skin damage; format: in vivo; conditions: guinea pigs, topical; untreated: erythema observed four hours after irradiation
Procedure: The effect of acyl-salicylates in the prevention and repair of UV-B induced skin damage was determined with an in vivo test, on female Hartley albino guinea pigs, using the propanoyl salicylate as model compound. The animals, that weighed about 400 g, were shaved with a commercial cream 24 h before irradiation. Propanoyl salicylate was applied 120 minutes before irradiation on the head distal area, on a 5 cm^2 rectangular area at a dose of about 2 mg/cm^2, the head proximal area serving as control site. A bank of four lamps providing a mean irradiation of about 1.2 mW/cm^2 at 310 nm was used as UV-B source. Following light exposure, sites were occluded with a cotton pad. The erythema following UV-B exposure was evaluated according to the following scale: not irradiated, 0, pale pink; slight erythema, 1, pink; moderate erythema, 2, intense pink; severe erythema, 3, intense pink, edema; ulcerated erythema, 4, intense pink, ulceration. One MED (minimal erythemal dose to obtain an erythema grade 1) for untreated animals corresponds to 5 minutes exposure at 400 mJ/cm^2. The protection effect was calculated as the ratio of protected skin MED to unprotected skin MED.

[2] = target: heat shock transcription factor (HSF) (Homo sapiens, UniProt Q00613); conditions: 2-30 mM; cited from earlier work
[3] = temperature stress 37° C., control (None) 0.3
[4] = temperature stress 40° C., control (None) 4.6

Chain of heat shock transcription factor (HSF) (Q00613 whole entry): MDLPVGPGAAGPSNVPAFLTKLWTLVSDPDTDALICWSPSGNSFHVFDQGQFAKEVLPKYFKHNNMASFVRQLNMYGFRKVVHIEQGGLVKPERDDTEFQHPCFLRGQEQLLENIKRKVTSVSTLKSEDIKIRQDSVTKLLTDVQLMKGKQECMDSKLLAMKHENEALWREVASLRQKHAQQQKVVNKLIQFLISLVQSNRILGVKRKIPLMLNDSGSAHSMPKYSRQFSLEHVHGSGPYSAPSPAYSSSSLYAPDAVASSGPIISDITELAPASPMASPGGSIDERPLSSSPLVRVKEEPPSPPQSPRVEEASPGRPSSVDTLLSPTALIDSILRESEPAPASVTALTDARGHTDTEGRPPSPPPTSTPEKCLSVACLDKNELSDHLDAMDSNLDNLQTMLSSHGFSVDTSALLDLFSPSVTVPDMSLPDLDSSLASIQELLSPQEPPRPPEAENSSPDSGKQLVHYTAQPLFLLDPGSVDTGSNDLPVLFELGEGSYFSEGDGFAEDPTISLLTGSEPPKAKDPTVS

OC(CO/N=C(\Cl)c1cccnc1)CN1CCCCC1 (stereo not shown) [Bimoclomol, reference compound]
temperature of maximum induction activity (heat shock response): 43 °C
increase of heat shock response with respect to the control (human Hsp70 promoter): 33%
increase of heat shock response compared with the control (human Hsp70 promoter): 20%
Luciferase activity (human Hsp70 promoter; [3]): 0.4 arbitrary units × 10^−5
Luciferase activity (human Hsp70 promoter; [4]): 5.5 arbitrary units × 10^−5

CCCCCCCC(=O)OC(=O)c1ccccc1O [Octanoyl salicylate, n-octanoyl salicylate]
increase of Hsp70 levels (Hsp70; 50 μM): up to 130%
Luciferase activity (human Hsp70 promoter; [3]): 0.5 arbitrary units × 10^−5
Luciferase activity (human Hsp70 promoter; [4]): 6.3 arbitrary units × 10^−5

CCC(=O)OC(=O)c1ccccc1O [Propanoyl salicylate]
stability [1]: compatible with its use in cosmetic and pharmaceutical formulations
time after UV-B irradiation at which erythema appeared in the treated area (UV-B induced erythema): 7 to 10 h
increase of Hsp70 levels (Hsp70; 5 μM): up to 89%
increase of heat shock response with respect to the control (human Hsp70 promoter): 33%
increase of heat shock response compared with the control (human Hsp70 promoter): 107%
Luciferase activity (human Hsp70 promoter; [3]): 0.4 arbitrary units × 10^−5
Luciferase activity (human Hsp70 promoter; [4]): 9.5 arbitrary units × 10^−5

O=C([O-])c1ccccc1O.[Na+] [sodium salicylate]
heat shock gene transcription [2]: does not induce heat shock gene transcription
